# Assay results as given in ChEMBL document CHEMBL1138639, “Carbonic anhydrase inhibitors: inhibition of human cytosolic isozyme II and mitochondrial isozyme V with a series of benzene sulfonamide derivatives” (Bioorg Med Chem Lett, 2004).
# Tests used:
# [1] = target: Carbonic anhydrase 5A, mitochondrial (Homo sapiens, UniProt P35218)
# [2] = target: Carbonic anhydrase 2 (Homo sapiens, UniProt P00918)
# Chain of Carbonic anhydrase 5A, mitochondrial (P35218 whole entry): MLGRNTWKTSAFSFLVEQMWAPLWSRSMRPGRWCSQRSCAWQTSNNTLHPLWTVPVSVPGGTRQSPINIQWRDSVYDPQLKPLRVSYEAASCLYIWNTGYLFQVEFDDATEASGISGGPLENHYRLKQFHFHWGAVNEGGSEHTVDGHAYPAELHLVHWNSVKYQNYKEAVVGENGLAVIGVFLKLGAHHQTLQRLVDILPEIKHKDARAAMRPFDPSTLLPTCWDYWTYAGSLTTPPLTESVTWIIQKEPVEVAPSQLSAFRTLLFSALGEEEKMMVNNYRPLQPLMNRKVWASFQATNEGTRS
SMILES,IC50 [1] [µM],IC50 [2] [µM]
COC(=O)c1ccccc1S(N)(=O)=O,53.2,
NNc1ccccc1S(N)(=O)=O,9.6,
NS(=O)(=O)c1nc2ccc([N+](=O)[O-])cc2s1,44.9,0.25
Nc1ccc(S(N)(=O)=O)cc1I,9.4,
NS(=O)(=O)c1ccc([N+](=O)[O-])cc1,4.2,0.4
NS(=O)(=O)c1cccc([N+](=O)[O-])c1,0.78,0.41
Nc1nccc(Nc2ccc(S(N)(=O)=O)cc2)n1,29.9,
Nc1ccccc1S(N)(=O)=O,15.3,
Nc1ccc(S(N)(=O)=O)cc1Br,7.6,
Nc1ccc(S(N)(=O)=O)cc1F,9.3,
NCCc1ccc(S(N)(=O)=O)cc1,42.4,
[H]/N=C(/N)NS(=O)(=O)c1ccc(N)cc1 [SULFAGUANIDINE],> 100,> 100

# Next, values leading:
IC50 [1] [µM],IC50 [2] [µM],SMILES
63.7,0.29,N/C(S)=N/Nc1ccc(S(N)(=O)=O)cc1
8.6,3.6,N#CSc1ccc(S(N)(=O)=O)cc1
17,,NS(=O)(=O)c1ccc(CCO)cc1
9.3,,NS(=O)(=O)c1ccc(CO)cc1
7.4,,Nc1ccc(S(N)(=O)=O)cc1Cl
7.7,,NNc1ccc(S(N)(=O)=O)cc1
2.65,,NS(=O)(=O)c1ccc(C(=O)O)cc1 [CARZENIDE]
27.6,,NCc1ccc(S(N)(=O)=O)cc1 [MAFENIDE]
4.7,,Cc1ccc(S(N)(=O)=O)cc1 [P-TOLUENESULFONAMIDE]
32,,Nc1ccc(S(N)(=O)=O)cc1 [SULFANILAMIDE]
